Each structure is given as a SMILES string. Where two headings read alike, the source gives them in different places.

Common to all, as to test: HotSpot kinase profiling
What all share (type): biochemical

For assay [1], the target named is T1, CDK2/cyclin A1 (Homo sapiens, UniProt P24941).
T1 construct: purchased Reaction Biology Corp
In a few lines:
(§1)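 Activity is measured by radiolabel transfer captured on P81 filters after a 2 h room-temperature reaction of kinase, substrate and cofactors. Values are percent inhibition against DMSO.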

The target of assay [2] is T2, CK2a (Homo sapiens, UniProt P68400).
T2 construct: purchased Reaction Biology Corp
In a few lines: as §1

The target of assay [3] is T3, EPHB3 (Homo sapiens, UniProt P54753).
T3 construct: purchased Reaction Biology Corp
T3 sequence (P54753 34-998): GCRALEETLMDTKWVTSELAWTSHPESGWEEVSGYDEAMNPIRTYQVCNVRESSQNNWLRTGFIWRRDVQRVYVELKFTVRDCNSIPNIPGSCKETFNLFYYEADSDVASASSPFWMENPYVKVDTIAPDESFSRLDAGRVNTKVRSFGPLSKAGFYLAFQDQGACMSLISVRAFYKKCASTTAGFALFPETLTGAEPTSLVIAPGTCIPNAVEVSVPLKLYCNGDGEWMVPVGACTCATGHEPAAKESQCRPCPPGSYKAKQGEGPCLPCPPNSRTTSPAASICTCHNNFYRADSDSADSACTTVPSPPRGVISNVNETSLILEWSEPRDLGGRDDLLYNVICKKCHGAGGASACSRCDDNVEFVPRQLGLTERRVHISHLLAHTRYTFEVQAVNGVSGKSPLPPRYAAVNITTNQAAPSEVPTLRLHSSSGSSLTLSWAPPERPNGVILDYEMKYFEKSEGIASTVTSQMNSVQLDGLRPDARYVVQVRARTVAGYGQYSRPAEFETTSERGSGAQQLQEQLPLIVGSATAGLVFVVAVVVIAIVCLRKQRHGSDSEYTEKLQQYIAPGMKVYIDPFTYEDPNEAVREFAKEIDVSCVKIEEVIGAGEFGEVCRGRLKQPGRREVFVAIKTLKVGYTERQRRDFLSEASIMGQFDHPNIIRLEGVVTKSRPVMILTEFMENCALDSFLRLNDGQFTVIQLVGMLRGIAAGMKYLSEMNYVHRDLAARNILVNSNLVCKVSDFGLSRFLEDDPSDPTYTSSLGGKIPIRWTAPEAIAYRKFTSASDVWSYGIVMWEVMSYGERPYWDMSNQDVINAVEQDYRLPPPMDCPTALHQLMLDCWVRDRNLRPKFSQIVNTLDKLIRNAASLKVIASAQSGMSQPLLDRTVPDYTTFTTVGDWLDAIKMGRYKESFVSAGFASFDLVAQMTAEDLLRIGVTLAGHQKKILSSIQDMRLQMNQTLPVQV
In a few lines: as §1

In assay [4] the target is T4, FLT3 (Homo sapiens, UniProt P36888).
T4 construct: purchased Reaction Biology Corp
T4 sequence (P36888 27-993): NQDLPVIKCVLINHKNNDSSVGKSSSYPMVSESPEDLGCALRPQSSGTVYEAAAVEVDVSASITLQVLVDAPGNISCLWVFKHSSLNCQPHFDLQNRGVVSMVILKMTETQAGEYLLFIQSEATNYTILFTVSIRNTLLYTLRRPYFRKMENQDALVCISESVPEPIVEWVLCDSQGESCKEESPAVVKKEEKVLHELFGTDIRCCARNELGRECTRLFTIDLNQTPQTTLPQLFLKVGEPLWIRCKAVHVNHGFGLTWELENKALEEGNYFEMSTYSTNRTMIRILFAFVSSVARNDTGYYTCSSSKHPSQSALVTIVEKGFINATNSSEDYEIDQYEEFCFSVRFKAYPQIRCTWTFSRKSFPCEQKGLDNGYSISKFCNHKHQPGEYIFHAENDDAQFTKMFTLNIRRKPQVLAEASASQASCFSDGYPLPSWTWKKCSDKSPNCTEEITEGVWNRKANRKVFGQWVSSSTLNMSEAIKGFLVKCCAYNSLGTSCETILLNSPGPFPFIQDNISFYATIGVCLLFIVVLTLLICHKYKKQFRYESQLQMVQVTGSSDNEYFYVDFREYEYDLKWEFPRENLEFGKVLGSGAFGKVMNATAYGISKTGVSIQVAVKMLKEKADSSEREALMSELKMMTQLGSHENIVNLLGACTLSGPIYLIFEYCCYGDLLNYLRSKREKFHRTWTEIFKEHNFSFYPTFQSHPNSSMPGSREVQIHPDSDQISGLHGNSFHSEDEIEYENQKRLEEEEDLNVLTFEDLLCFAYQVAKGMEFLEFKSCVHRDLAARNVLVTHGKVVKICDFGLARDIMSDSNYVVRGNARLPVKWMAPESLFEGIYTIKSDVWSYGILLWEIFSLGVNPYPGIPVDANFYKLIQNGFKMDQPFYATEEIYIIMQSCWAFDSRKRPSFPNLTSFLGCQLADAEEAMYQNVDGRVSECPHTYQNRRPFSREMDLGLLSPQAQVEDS
In a few lines: as §1

Assay [5] addresses T5, LIMK1 (Homo sapiens, UniProt P53667).
T5 construct: purchased Reaction Biology Corp
In a few lines:
as §1

The target of assay [6] is T6, MARK3 (Homo sapiens, UniProt P27448).
T6 construct: purchased Reaction Biology Corp
In a few lines: as §1

Setting [7] is: read-out: % Enzyme Activity (relative to DMSO controls) Run 1.
Where [8] appears, read: read-out: % Enzyme Activity (relative to DMSO controls) Run 2.

T6 sequence (P27448 whole entry): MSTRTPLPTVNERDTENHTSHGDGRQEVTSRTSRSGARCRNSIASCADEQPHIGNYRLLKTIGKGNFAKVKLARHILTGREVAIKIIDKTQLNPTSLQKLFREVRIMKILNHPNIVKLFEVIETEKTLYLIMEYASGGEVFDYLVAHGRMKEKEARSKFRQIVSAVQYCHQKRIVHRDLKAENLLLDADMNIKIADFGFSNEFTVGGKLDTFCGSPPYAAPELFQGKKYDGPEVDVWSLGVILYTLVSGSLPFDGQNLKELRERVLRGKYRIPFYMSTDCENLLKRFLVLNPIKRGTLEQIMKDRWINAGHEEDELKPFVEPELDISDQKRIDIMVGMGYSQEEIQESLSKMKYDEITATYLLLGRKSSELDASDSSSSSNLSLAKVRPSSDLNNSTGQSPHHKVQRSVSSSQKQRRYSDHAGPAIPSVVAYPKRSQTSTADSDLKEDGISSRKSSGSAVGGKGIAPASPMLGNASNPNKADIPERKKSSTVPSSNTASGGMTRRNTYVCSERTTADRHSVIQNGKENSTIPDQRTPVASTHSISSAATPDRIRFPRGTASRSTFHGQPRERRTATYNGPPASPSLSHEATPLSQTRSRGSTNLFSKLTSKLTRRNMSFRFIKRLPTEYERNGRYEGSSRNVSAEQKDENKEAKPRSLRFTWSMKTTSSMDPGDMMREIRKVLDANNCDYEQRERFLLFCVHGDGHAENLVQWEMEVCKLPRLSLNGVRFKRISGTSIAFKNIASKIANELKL
T2 sequence (P68400 whole entry): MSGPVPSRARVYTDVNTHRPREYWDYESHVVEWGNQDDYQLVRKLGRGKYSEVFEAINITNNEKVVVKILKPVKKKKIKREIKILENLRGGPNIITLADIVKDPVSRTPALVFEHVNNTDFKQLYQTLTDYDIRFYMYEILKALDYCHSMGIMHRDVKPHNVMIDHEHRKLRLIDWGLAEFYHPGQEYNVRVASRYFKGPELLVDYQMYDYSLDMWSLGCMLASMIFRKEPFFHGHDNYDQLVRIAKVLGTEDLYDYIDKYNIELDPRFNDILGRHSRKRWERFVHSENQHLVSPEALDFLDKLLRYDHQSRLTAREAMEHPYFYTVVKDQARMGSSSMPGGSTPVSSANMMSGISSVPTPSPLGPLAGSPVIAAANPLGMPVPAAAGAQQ
T5 sequence (P53667 whole entry): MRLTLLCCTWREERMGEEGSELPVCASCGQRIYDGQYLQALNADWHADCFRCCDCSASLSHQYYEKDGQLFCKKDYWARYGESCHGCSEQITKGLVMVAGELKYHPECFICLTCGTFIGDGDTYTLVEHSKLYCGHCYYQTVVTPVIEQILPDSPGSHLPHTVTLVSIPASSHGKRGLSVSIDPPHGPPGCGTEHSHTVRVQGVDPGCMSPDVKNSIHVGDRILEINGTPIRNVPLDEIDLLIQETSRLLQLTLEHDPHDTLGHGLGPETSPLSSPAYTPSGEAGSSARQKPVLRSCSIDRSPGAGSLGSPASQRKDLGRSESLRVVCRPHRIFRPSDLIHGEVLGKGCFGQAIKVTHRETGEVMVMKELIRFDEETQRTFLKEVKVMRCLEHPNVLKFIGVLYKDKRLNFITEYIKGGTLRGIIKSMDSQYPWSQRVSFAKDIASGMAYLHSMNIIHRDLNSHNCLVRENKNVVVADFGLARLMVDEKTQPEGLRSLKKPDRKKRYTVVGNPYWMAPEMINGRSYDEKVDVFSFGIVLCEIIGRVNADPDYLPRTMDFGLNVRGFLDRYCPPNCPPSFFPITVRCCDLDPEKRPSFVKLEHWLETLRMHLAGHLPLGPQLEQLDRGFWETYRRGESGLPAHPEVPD

For the molecule `C=CC(=O)Nc1cccc(Nc2nc(Nc3ccc(OCCOC)c(F)c3)ncc2F)c1` [Compound 2], the inhibition at 3 µM in assay [1] is 22%; in assay [2], -20.1%; in assay [3], 1.31%; in assay [4], 96.8%; in assay [5], 38.8%; in assay [6], -0.92%. For the same molecule, the remaining activity at 3 µM in assay [1] (setting [7]) is 78.2%; in assay [1] (setting [8]), 77.7%; in assay [2] (setting [7]), 117%; in assay [2] (setting [8]), 123%; in assay [3] (setting [7]) it was 99.2%; in assay [3] (setting [8]), 98.2%. The remaining activity at 3 µM in assay [4] (setting [7]) worked out at 3.19%; in assay [4] (setting [8]) it was 3.25%; in assay [5] (setting [7]), 61%; in assay [5] (setting [8]), 61.4%; in assay [6] (setting [7]), 101%; in assay [6] (setting [8]), 100%.

The values are drawn from patent publication US9492471B2, “Methods of treating a disease or disorder associated with Bruton'S Tyrosine Kinase” (Celgene Avilomics Research, Inc., priority 2013, dated 2016).
